Laboratory results reported in patent US10208011B2, “Benzothiophene estrogen receptor modulators” (G1 Therapeutics, Inc., priority 2017, dated 2019).

Tests used:
[1] = molecular target: estrogen receptor α in MCF7 cells (Homo sapiens (Human), UniProt P03372); test: Estrogen Receptor (ER) Degradation Assay (In-Cell Western); format: cell-based; conditions: for IC50: 24 hours, In-Cell Western; for % Estrogen Receptor Remaining: vehicle set to 100%
Protocol: A screening strategy was implemented utilizing an In-Cell Western assay to measure their ability to degrade the estrogen receptor in vitro. MCF7 cells, which are estrogen receptor positive, were plated at a cell density of […] into black walled clear bottom 96-well plates. Cells were incubated in phenol red free Dulbecco's Modified Eagle Media (DMEM) supplemented with 8% charcoal-stripped fetal bovine calf serum for 24 hours in a humidified 37° C. incubator. Concentrated stock compounds were diluted to 10× in complete media. Compounds were added to the plated cells in a dose-dependent manner ranging from 1E-12 to 1E-05 M and incubated for an additional 24 hours at 37° C. Culture medium was removed from the culture plates by gentle inversion. Cells were fixed in 4% paraformaldehyde in 1× phosphate buffered saline-calcium magnesium free (PBS-CMF) for 15 minutes at room temperature, washed 3 times for 5 minutes each in 1×PBS-CMF. Cells were permeabilized in immunofluorescence (IF) blocking buffer (Cell Signaling #12411) containing 0.3% Triton X100. Cells were washed 3 times for 5 minutes each in 1×PBS-CMF and incubated in estrogen receptor α (D6R2W) rabbit primary antibody (Cell Signaling #13258) diluted 1:300 in IF antibody dilution buffer (Cell Signaling #12378). Cells were washed 3 times for 5 minutes each in 1×PBS-CMF and stained with goat anti-rabbit (Biotium #CF770) secondary antibody diluted 1:2000 in IF antibody dilution buffer and normalizing stain CellTag 700 diluted 1:500 (Licor #926-41090). ER protein expression was assessed by the Licor Odyssey CLx imaging system using Image Studio v5.2. Data is processed utilizing GraphPad Prism 7 by subtracting background from the vehicle and setting the vehicle to 100% ER activity, followed by comparing treated samples to vehicle. This procedure was used to produce the graph in FIG. 2, FIG. 3, FIG. 4, FIG. 5, FIG. 6, FIG. 7, and FIG. 8.
(§1) In the below table for the Estrogen Receptor Degradation Assay and the Human ERα Reporter Assay: […]

[2] = molecular target: human estrogen receptor (ERα) (Homo sapiens (Human), UniProt P03372); test: Human ERα Reporter Assay (Indigo Biosciences); format: cell-based; conditions: antagonist mode, 17β-estradiol 8E-10 M, 24 hours
Sequence of human estrogen receptor (ERα) (P03372 whole entry): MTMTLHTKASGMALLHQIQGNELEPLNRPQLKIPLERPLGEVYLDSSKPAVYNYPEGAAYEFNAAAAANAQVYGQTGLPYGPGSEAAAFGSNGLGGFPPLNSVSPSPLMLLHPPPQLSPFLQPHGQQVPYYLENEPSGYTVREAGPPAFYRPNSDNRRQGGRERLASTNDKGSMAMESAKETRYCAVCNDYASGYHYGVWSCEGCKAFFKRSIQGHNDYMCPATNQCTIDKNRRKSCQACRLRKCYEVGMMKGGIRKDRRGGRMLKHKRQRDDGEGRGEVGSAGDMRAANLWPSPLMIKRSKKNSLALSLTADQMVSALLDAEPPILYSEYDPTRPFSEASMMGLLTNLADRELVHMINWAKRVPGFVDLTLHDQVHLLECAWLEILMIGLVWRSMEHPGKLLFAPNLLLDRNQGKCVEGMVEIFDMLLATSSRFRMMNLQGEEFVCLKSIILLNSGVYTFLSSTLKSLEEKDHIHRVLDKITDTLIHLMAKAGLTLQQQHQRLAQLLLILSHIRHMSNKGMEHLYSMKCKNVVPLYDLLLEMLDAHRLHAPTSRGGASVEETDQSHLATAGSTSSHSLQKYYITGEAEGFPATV
Protocol: All reagents used in this assay was supplied in the Human ERα Reporter Assay by Indigo Biosciences # IB00401. In an effort to screen selective estrogen receptor degraders (SERDs), the Human ERα Reporter Assay, supplied by Indigo Biosciences, was utilized to quantify antagonist functional activity against the human estrogen receptor. Reporter cells were thawed at 37° C. and added to pre-warmed to 37° C. cell recovery medium (CRM). Stock concentration of 17β-estradiol was serially diluted in CRM. Diluted 17β-estradiol was added to CRM containing reporter cells resulting in a working concentration of 1.6 nM (2×). Cells plus 17β-estradiol were dispensed in a kit-supplied white walled 96-well plate. Concentrated stocks of test compounds were diluted to 2× working concentrations in cell screening medium (CSM). 2× concentrated compounds were added to the plated cells in a dose-dependent manner resulting in a final concentration range of 1E-11 to 1E-5 M and a final 17β-estradiol concentration of 8E-10 M. Assay plates were incubated for 24 hours in a humidified 37° C. incubator. Culture medium was removed from the assay plates by inversion. Detection substrate and buffer was warmed to room temperature, mixed thoroughly, and immediately added to the assay plates. Assay plates were incubated for 15 minutes at room temperature protected from light. Luminescence was measured in a Synergy HTX luminescence plate reader. Data is processed utilizing GraphPad Prism 7 by graphing the relative light units measured at each compound concentration. This procedure was used to produce the graph in FIG. 1, FIG. 9, FIG. 10, FIG. 11, FIG. 12, FIG. 13, and FIG. 14.
as §1

Sequence of estrogen receptor α in MCF7 cells (P03372 whole entry): as above

| IC50 [1] [nM] | IC50 [2] [nM] | SMILES | % Estrogen Receptor Remaining [1] |
| --- | --- | --- | --- |
| < 1000 | < 1000 | Cc1cc(F)cc(C)c1C(=O)c1sc2cc(O)ccc2c1Oc1ccc(CCN2CC(CF)C2)cc1 [Compound 117, (4-fluoro-2,6-dimethylphenyl)(3-(4-(2-(3-(fluoromethyl)azetidin-1-yl)ethyl)phenoxy)-6-hydroxybenzo[b]thiophen-2-yl)methanone] | *** (*** denotes 41-70% Estrogen Receptor remaining) |
| < 1000 | < 1000 | CCNCCc1ccc(Oc2c(C(=O)c3c(C)cc(F)cc3C)sc3cc(O)ccc23)cc1 [Compound 100, (3-(4-(2-(ethylamino)ethyl)phenoxy)-6-hydroxybenzo[b]thiophen-2-yl)(4-fluoro-2,6-dimethylphenyl)methanone] | **** (**** denotes 0-40% Estrogen Receptor remaining) |
| < 1000 | < 50000 | Cc1cc(F)cc(C)c1C(=O)c1sc2cc(O)ccc2c1-c1ccc(OCCN2CC(CF)C2)cc1 [Compound 120, (4-f1uoro-2,6-dimethylphenyl)(3-(4-(2-(3-(fluoromethyl)azetidin-1-yl)ethoxy)phenyl)-6-hydroxybenzo[b]thiophen-2-yl)methanone] | *** (*** denotes 41-70% Estrogen Receptor remaining) |
| < 50000 | < 1000 | Cc1cc(F)cc(C)c1C(=O)c1sc2cc(O)ccc2c1Oc1ccc(C2CCCNC2)cc1 (stereo not shown) [Compound 103, (4-fluoro-2,6-dimethylphenyl)(6-hydroxy-3-(4-(piperidin-3-yl)phenoxy)benzo[b]thiophen-2-yl)methanone] | **** (**** denotes 0-40% Estrogen Receptor remaining) |
| < 1000 | < 1000 | Cc1cc(F)cc(C)c1C(=O)c1sc2cc(O)ccc2c1Oc1ccc(N2CCCCCC2)cc1 [Compound 102, (3-(4-(azepan-1-yl)phenoxy)-6-hydroxybenzo[b]thiophen-2-yl)(4-fluoro-2,6-dimethylphenyl)methanone] | *** (*** denotes 41-70% Estrogen Receptor remaining) |
| – | – | CCNCCc1ccc(CN(CC)c2cc(OC)ccc2[C@@H]2CCc3cc(O)ccc3C2)cc1.Cl.Cl (stereo in doubt) [RAD- 1901, reference compound] | **** (**** denotes 0-40% Estrogen Receptor remaining) |
| – | – | Cc1cc(F)cc(C)c1C(=O)c1sc2cc(O)ccc2c1Oc1ccc(OCCN2CCCCC2)cc1 [Compound 106, (4-fluoro-2,6-dimethylphenyl)(6-hydroxy-3-(4-(2-(piperidin-1-yl)ethoxy)phenoxy)benzo[b]thiophen-2-yl)methanone] | *** (*** denotes 41-70% Estrogen Receptor remaining) |
| < 1000 | < 1000 | Cc1cc(F)cc(C)c1C(=O)c1sc2cc(O)ccc2c1Oc1ccc(CN(C)C)cc1 [Compound 114, (3-(4-((dimethylamino)methyl)phenoxy)-6-hydroxybenzo[b]thiophen-2-yl)(4-fluoro-2,6-dimethylphenyl)methanone] | ** (** denotes 71-90% Estrogen Receptor remaining) |
| < 1000 | < 1000 | Cc1cc(F)cc(C)c1C(=O)c1sc2cc(O)ccc2c1Oc1ccc(CCN)cc1 [Compound 104, (3-(4-(2-aminoethyl)phenoxy)-6-hydroxybenzo[b]thiophen-2-yl)(4-fluoro-2,6-dimethylphenyl)methanone] | *** (*** denotes 41-70% Estrogen Receptor remaining) |
| < 1000 | < 1000 | Cc1cc(F)cc(C)c1C(=O)c1sc2cc(O)ccc2c1Oc1ccc(CCNC2CCCCC2)cc1 [Compound 110, (3-(4-(2-(cyclohexylamino)ethyl)phenoxy)-6-hydroxybenzo[b]thiophen-2-yl)(4-fluoro-2,6-dimethylphenyl)methanone] | *** (*** denotes 41-70% Estrogen Receptor remaining) |
| < 50000 | < 1000 | Cc1cc(F)cc(C)c1C(=O)c1sc2cc(O)ccc2c1Oc1ccc(CCNC(C)C)cc1 [Compound 105, (4-fluoro-2,6-dimethylphenyl)(6-hydroxy-3-(4-(2-(isopropylamino)ethyl)phenoxy)benzo[b]thiophen-2-yl)methanone] | **** (**** denotes 0-40% Estrogen Receptor remaining) |
| – | – | Cc1cc(F)cc(C)c1C(=O)c1sc2cc(O)ccc2c1Oc1ccc(OCCN2CCCCCC2)cc1 [Compound 107, (3-(4-(2-(azepan-1-yl)ethoxy)phenoxy)-6-hydroxybenzo[b]thiophen-2-yl)(4-fluoro-2,6-dimethylphenyl)methanone] | *** (*** denotes 41-70% Estrogen Receptor remaining) |
| < 1000 | < 50000 | Cc1cc(F)cc(C)c1C(=O)c1sc2cc(O)ccc2c1-c1ccc(OCCN2CCC(CF)C2)cc1 (stereo not shown) [Compound 123, (4-fluoro-2,6-dimethylphenyl)(3-(4-(2-(3-(fluoromethyl)pyrrolidin-1-yl)ethoxy)phenyl)-6-hydroxybenzo[b]thiophen-2-yl)methanone] | *** (*** denotes 41-70% Estrogen Receptor remaining) |
| < 1000 | < 1000 | Cc1cc(F)cc(C)c1C(=O)c1sc2cc(O)ccc2c1-c1ccc(CCN2CC(CF)C2)cc1 [Compound 119, (4-fluoro-2,6-dimethylphenyl)(3-(4-(2-(3-(fluoromethyl)azetidin-1-yl)ethyl)phenyl)-6-hydroxybenzo[b]thiophen-2-yl)methanone] | *** (*** denotes 41-70% Estrogen Receptor remaining) |
| < 1000 | < 1000 | CNCCCc1ccc(Oc2c(C(=O)c3c(C)cc(F)cc3C)sc3cc(O)ccc23)cc1 [Compound 116, (4-fluoro-2,6-dimethylphenyl)(6-hydroxy-3-(4-(3-(methylamino)propyl)phenoxy)benzo[b]thiophen-2-yl)methanone] | *** (*** denotes 41-70% Estrogen Receptor remaining) |
| < 1000 | < 1000 | Cc1cc(F)cc(C)c1C(=O)c1sc2cc(O)ccc2c1Oc1ccc(CCN2CC[C@H](C)C2)cc1 [Compound 118, (S)-(4-fluoro-2,6-dimethylphenyl)(6-hydroxy-3-(4-(2-(3-methylpyrrolidin-1-yl)ethyl)phenoxy)benzo[b]thiophen-2-yl)methanone] | *** (*** denotes 41-70% Estrogen Receptor remaining) |
| < 1000 | < 50000 | Cc1cc(F)cc(C)c1C(=O)c1sc2cc(O)ccc2c1-c1ccc(OCCN2CCC(CF)CC2)cc1 [Compound 124, (4-fluoro-2,6-dimethylphenyl)(3-(4-(2-(4-(fluoromethyl)piperidin-1-yl)ethoxy)phenyl)-6-hydroxybenzo[b]thiophen-2-yl)methanone] | *** (*** denotes 41-70% Estrogen Receptor remaining) |
| < 1000 | < 1000 | CCC(C)NCCc1ccc(Oc2c(C(=O)c3c(C)cc(F)cc3C)sc3cc(O)ccc23)cc1 (stereo not shown) [Compound 111, (3-(4-(2-(sec-butylamino)ethyl)phenoxy)-6-hydroxybenzo[b]thiophen-2-yl)(4-fluoro-2,6-dimethylphenyl)methanone] | **** (**** denotes 0-40% Estrogen Receptor remaining) |
| – | – | Cc1cc(F)cc(C)c1C(=O)c1sc2cc(O)ccc2c1Oc1ccc(OCCN2CCCC2)cc1 [Compound 108, (4-fluoro-2,6-dimethylphenyl)(6-hydroxy-3-(4-(2-(pyrrolidin-1-yl)ethoxy)phenoxy)benzo[b]thiophen-2-yl)methanone] | *** (*** denotes 41-70% Estrogen Receptor remaining) |
